Experimental data published in article PMC11014671, “Small molecules that disrupt RAD54-BLM interaction hamper tumor proliferation in colon cancer chemoresistance models” (The Journal of Clinical Investigation, 2024).

Key:
RAD54 = biological target: T1, RAD54 (Homo sapiens, UniProt Q92698); experiment: biolayer interferometry (His-RAD54 immobilized); tryptophan fluorescence quenching; assay type: binding
T1 construct: gene RAD54L; His-RAD54
T1 sequence (Q92698 1-747): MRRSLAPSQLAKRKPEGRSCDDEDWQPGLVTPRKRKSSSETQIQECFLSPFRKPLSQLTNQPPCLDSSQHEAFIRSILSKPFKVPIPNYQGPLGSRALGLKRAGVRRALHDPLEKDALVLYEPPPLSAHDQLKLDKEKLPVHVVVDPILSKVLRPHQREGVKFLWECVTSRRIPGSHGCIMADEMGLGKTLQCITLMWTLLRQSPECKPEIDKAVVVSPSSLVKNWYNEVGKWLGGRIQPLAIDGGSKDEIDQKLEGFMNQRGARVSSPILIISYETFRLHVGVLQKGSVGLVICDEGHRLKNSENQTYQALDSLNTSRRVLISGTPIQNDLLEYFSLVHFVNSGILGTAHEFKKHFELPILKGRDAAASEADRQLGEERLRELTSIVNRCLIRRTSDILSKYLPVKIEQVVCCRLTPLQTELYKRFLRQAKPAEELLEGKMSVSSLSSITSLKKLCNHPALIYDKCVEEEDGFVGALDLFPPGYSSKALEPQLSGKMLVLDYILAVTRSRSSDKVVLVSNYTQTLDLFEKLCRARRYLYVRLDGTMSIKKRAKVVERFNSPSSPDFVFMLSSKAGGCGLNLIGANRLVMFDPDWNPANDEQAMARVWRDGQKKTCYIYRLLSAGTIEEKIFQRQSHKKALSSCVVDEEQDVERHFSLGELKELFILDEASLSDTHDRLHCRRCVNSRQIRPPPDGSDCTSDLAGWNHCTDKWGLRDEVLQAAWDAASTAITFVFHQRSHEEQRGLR

[1] = biological target: His-RAD54 WT (full-length recombinant RAD54) (UniProt Q92698); experiment: BLI; Octet; His-RAD54 WT immobilized onto Ni-NTA sensor, different concentrations of biotin BLM_peptide

Compound	Kd (RAD54)	Kd [1]
CC(=O)Nc1nnc(S(N)(=O)=O)s1 [C3, acetazolamide]	55.8 µM	–
biotinylated BLM (aa 181–212) peptide	–	0.0108 µM
